# According to patent US20230072860A1, “ISOXAZOLINE OXIME FORMATE COMPOUND, PREPARATION METHOD THEREFOR, HERBICIDAL COMPOSITION AND USE THEREOF” (QINGDAO KINGAGROOT CHEMICAL COMPOUND CO., LTD., priority 2020, published 2023):
# What was measured:
# Assay in all cases: Experiment on weeding effect in post-emergence stage
# Format in all cases: in vivo
# Settings in all cases: dose 15 g a.i./ha, fresh weight control rate level
# Abutilon theophrasti = tested on: Abutilon theophrasti
# Excerpt: (§1) Experiment on weeding effect in post-emergence stage:
# (§2) Monocotyledonous and dicotyledonous weed seeds (Descurainia sophia, Capsella bursa-pastoris, Abutilon theophrasti, Galium aparine, Stellaria media, Lithospermum arvense, Rorippa indica, Alopecurus aequalis, Alopecurus japonicus, Beckmannia syzigachne, Sclerochloa dura, Conyza Canadensis, Phleum paniculatum, Veronica didyma Tenore, Eleusine indica, Bromus japonicus, Aegilops tauschii, Phalaris arundinacea, Amaranthus retroflexus, Chenopodium album, Commelina communis, Sonchus arvensis, Convolvulus arvensis, Cirsium setosum, Solanum nigrum, Acalypha australis, Digitaria sanguinalis, Echinochloa crusgalli, Setaria viridis, Setaria glauca, Leptochloa chinensis, Monochoria vaginalis, Sagittaria trolia, Scirpus juncoides, Cyperus rotundus, Cyperus iria, Cyperus difformis, Elmbristylis, Portulaca oleracea, Xanthium sibiricum, Pharbitis nil) and major crop seeds (wheat, corn, rice, soybean, cotton, oilseed rape, millet, sorghum, potato, sesame, ricinus) were placed in plastic pots filled with soil, then covered with 0.5-2 cm of soil, allowed to grow in a good greenhouse environment. After 2 weeks of sowing, the test plants were treated in the 2-3 leaf stage. The tested compounds of the present invention were respectively dissolved in acetone, then added with Tween 80 and 1.5 liter/ha of emulsifiable concentrate of methyl oleate as synergist, diluted with a certain amount of water to obtain a solution with a certain concentration, and sprayed with a spray tower onto the plants. After the application, the plants were cultured for 3 weeks in the greenhouse, and then the experimental results of the weeding were counted. The doses of the used compounds were 500, 250, 125, 60, 15 g a.i./ha, and the averages were obtained by repeating for three times.
# Amaranthus retroflexus = tested on: Amaranthus retroflexus
# Excerpt: as §1, §2
# Digitaria sanguinalis = tested on: Digitaria sanguinalis
# Excerpt: as §1, §2
# Echinochloa crusgalli = tested on: Echinochloa crusgalli
# Excerpt: as §1, §2
# Eleusine indica = tested on: Eleusine indica
# Excerpt: as §1, §2
# Galium aparine = tested on: Galium aparine
# Excerpt: as §1, §2
# Leptochloa chinensis = tested on: Leptochloa chinensis
# Excerpt: as §1, §2
# Setaria viridis = tested on: Setaria viridis
# Excerpt: as §1, §2
# Veronica didyma Tenore = tested on: Veronica didyma Tenore
# Excerpt: as §1, §2
Compound,"weeding effect in post-emergence stage, Abutilon theophrasti (level) (Abutilon theophrasti)","weeding effect in post-emergence stage, Amaranthus retroflexus (level) (Amaranthus retroflexus)","weeding effect in post-emergence stage, Digitaria sanguinalis (level) (Digitaria sanguinalis)","weeding effect in post-emergence stage, Echinochloa crusgalli (level) (Echinochloa crusgalli)","weeding effect in post-emergence stage, Eleusine indica (level) (Eleusine indica)","weeding effect in post-emergence stage, Galium aparine (level) (Galium aparine)","weeding effect in post-emergence stage, Leptochloa chinensis (level) (Leptochloa chinensis)","weeding effect in post-emergence stage, Setaria viridis (level) (Setaria viridis)","weeding effect in post-emergence stage, Veronica didyma Tenore (level) (Veronica didyma Tenore)"
CC(C)=NOC(=O)C1(C)CC(c2nc(-n3c(=O)cc(C(F)(F)F)n(C)c3=O)c(F)cc2Cl)=NO1 (stereo not drawn) [Compound 170],5 (Level 5: growth control rate is above 85%),5 (Level 5: growth control rate is above 85%),5 (Level 5: growth control rate is above 85%),5 (Level 5: growth control rate is above 85%),5 (Level 5: growth control rate is above 85%),5 (Level 5: growth control rate is above 85%),5 (Level 5: growth control rate is above 85%),5 (Level 5: growth control rate is above 85%),5 (Level 5: growth control rate is above 85%)
Cn1c(=S)n(C)c(=O)n(-c2cc(C3=NOC(C)(C(=O)ON=C4CCCC4)C3)c(Cl)cc2F)c1=O (stereo not drawn) [Compound 146],5 (Level 5: growth control rate is above 85%),5 (Level 5: growth control rate is above 85%),5 (Level 5: growth control rate is above 85%),5 (Level 5: growth control rate is above 85%),5 (Level 5: growth control rate is above 85%),5 (Level 5: growth control rate is above 85%),5 (Level 5: growth control rate is above 85%),5 (Level 5: growth control rate is above 85%),5 (Level 5: growth control rate is above 85%)
C/C(=N\OC(=O)C1(C)CC(c2cc(-n3c(=O)n(C)c(=S)n(C)c3=S)c(F)cc2Cl)=NO1)C(C)C (stereo not drawn) [Compound 58],5 (Level 5: growth control rate is above 85%),5 (Level 5: growth control rate is above 85%),5 (Level 5: growth control rate is above 85%),5 (Level 5: growth control rate is above 85%),5 (Level 5: growth control rate is above 85%),5 (Level 5: growth control rate is above 85%),5 (Level 5: growth control rate is above 85%),5 (Level 5: growth control rate is above 85%),5 (Level 5: growth control rate is above 85%)
CC(C)=NOC(=O)C1(C)CC(c2cc(-n3c(=O)n(C)c(=S)n(C)c3=O)c(F)cc2Cl)=NO1 (stereo not drawn) [Compound 10],5 (Level 5: growth control rate is above 85%),5 (Level 5: growth control rate is above 85%),5 (Level 5: growth control rate is above 85%),5 (Level 5: growth control rate is above 85%),5 (Level 5: growth control rate is above 85%),5 (Level 5: growth control rate is above 85%),5 (Level 5: growth control rate is above 85%),5 (Level 5: growth control rate is above 85%),5 (Level 5: growth control rate is above 85%)
CCOC(=O)C(C)=NOC(=O)C1(C)CC(c2cc(-n3c(=O)n(C)c(=S)n(C)c3=S)c(F)cc2Cl)=NO1 (stereo not drawn) [Compound 75],5 (Level 5: growth control rate is above 85%),5 (Level 5: growth control rate is above 85%),5 (Level 5: growth control rate is above 85%),5 (Level 5: growth control rate is above 85%),5 (Level 5: growth control rate is above 85%),5 (Level 5: growth control rate is above 85%),5 (Level 5: growth control rate is above 85%),5 (Level 5: growth control rate is above 85%),5 (Level 5: growth control rate is above 85%)
Cc1ccc(C=NOC(=O)C2(C)CC(c3cc(-n4c(=O)n(C)c(=S)n(C)c4=O)c(F)cc3Cl)=NO2)o1 (mixture of isomers) [Compound 117],5 (Level 5: growth control rate is above 85%),5 (Level 5: growth control rate is above 85%),5 (Level 5: growth control rate is above 85%),5 (Level 5: growth control rate is above 85%),5 (Level 5: growth control rate is above 85%),5 (Level 5: growth control rate is above 85%),5 (Level 5: growth control rate is above 85%),5 (Level 5: growth control rate is above 85%),5 (Level 5: growth control rate is above 85%)
C/C(=N/OC(=O)C1(C)CC(c2cc(-n3c(=O)n(C)c(=S)n(C)c3=O)c(F)cc2Cl)=NO1)c1ccccc1 (stereo not drawn) [Compound 124],5 (Level 5: growth control rate is above 85%),5 (Level 5: growth control rate is above 85%),5 (Level 5: growth control rate is above 85%),5 (Level 5: growth control rate is above 85%),5 (Level 5: growth control rate is above 85%),5 (Level 5: growth control rate is above 85%),5 (Level 5: growth control rate is above 85%),5 (Level 5: growth control rate is above 85%),5 (Level 5: growth control rate is above 85%)
CC(=NOC(=O)C1(C)CC(c2cc(-n3c(=O)n(C)c(=S)n(C)c3=O)c(F)cc2Cl)=NO1)C(C)C (mixture of isomers) [Compound 80],5 (Level 5: growth control rate is above 85%),5 (Level 5: growth control rate is above 85%),5 (Level 5: growth control rate is above 85%),5 (Level 5: growth control rate is above 85%),5 (Level 5: growth control rate is above 85%),5 (Level 5: growth control rate is above 85%),5 (Level 5: growth control rate is above 85%),5 (Level 5: growth control rate is above 85%),5 (Level 5: growth control rate is above 85%)
CCOC(=O)C(C)=NOC(=O)C1(C)CC(c2cc(-n3c(=O)n(C)c(=S)n(C)c3=O)c(F)cc2Cl)=NO1 (stereo not drawn) [Compound 123],5 (Level 5: growth control rate is above 85%),5 (Level 5: growth control rate is above 85%),5 (Level 5: growth control rate is above 85%),5 (Level 5: growth control rate is above 85%),5 (Level 5: growth control rate is above 85%),5 (Level 5: growth control rate is above 85%),5 (Level 5: growth control rate is above 85%),5 (Level 5: growth control rate is above 85%),5 (Level 5: growth control rate is above 85%)
